Read-outs that look alike come from different tables or passages of the source.
How the values were obtained:
[1] = system: patients with type 2 diabetes mellitus, chronic kidney disease, and risks for cardiovascular disease; assay type: in vivo
Procedure: A multicenter, double-blind clinical trial (SCORED) was conducted in which patients with type 2 diabetes mellitus (glycated hemoglobin level, ≥7%), chronic kidney disease (estimated glomerular filtration rate, 25 to 60 ml per minute per 1.73 m^2 of body-surface area), and risks for cardiovascular disease were randomly assigned in a 1:1 ratio to receive sotagliflozin or placebo. The primary end point was changed during the trial to the composite of the total number of deaths from cardiovascular causes, hospitalizations for heart failure, and urgent visits for heart failure.
Randomization was stratified according to criteria for heart failure (ejection fraction of ≤40% documented within the past year or hospitalization for heart failure during the previous 2 years) and geographic region (North America, Latin America, western Europe, eastern Europe, or rest of the world).
Persons 18 years of age or older with type 2 diabetes mellitus with a glycated hemoglobin level of 7% or higher, chronic kidney disease (eGFR, 25 to 60 ml per minute per 1.73 m^2 of body-surface area), and additional cardiovascular risk factors were enrolled. The risk factors consisted of at least one major cardiovascular risk factor in those 18 years of age or older or at least two minor cardiovascular risk factors in those 55 years of age or older. One exclusion criterion was any plan to start an SGLT2 inhibitor during the trial. Written informed consent was obtained from all the patients.
The original coprimary end points, assessed in time-to-event analyses, were the first occurrence of a major adverse cardiovascular event (MACE, defined as death from cardiovascular causes, non-fatal myocardial infarction, or nonfatal stroke) and the first occurrence of death from cardiovascular causes or hospitalization for heart failure (HHF). The primary end point was the total number of deaths from cardiovascular causes, hospitalizations for heart failure, and urgent visits for heart failure (UVHF).
The secondary end points were the total number of hospitalizations for heart failure and urgent visits for heart failure; deaths from cardiovascular causes; the total number of deaths from cardiovascular causes, hospitalizations for heart failure, nonfatal myocardial infarctions, and nonfatal strokes; the total number of deaths from cardiovascular causes, hospitalizations for heart failure, urgent visits for heart failure, and events of heart failure during hospitalization; the first occurrence of the composite of a sustained decrease of at least 50% in the eGFR from baseline for at least 30 days, long-term dialysis, renal trans-plantation, or a sustained eGFR of less than 15 ml per minute per 1.73 m^2 for at least 30 days; deaths from any cause; and the total number of deaths from cardiovascular causes, nonfatal myocardial infarctions, and nonfatal strokes. The use of total events allowed for a single patient to have more than one event contributing to the analysis. Subgroup analyses were prespecified.
All efficacy analyses followed the intention-to-treat principle. To allow for analyses of total events, competing-risk marginal models for recurrent events that were stratified according to heart-failure criteria and geographic region, with deaths not included in a given end point treated as competing terminal events, were applied to generate hazard ratios with Wald 95% confidence intervals and P values. Proportionality was confirmed by interaction terms between trial-group assignment and the logarithm of time. Event rates were summarized by the number of events per 100 patient-years of follow-up, and accrual of events over time was summarized by cumulative incidence functions.
Total events of myocardial infarction and total events of stroke were evaluated post hoc. Testing for differences between the two groups in adverse events was performed post hoc; P values were obtained from Pearson chi-square tests. […]

[2] = system: patients with reported LVH and no reported hypertension; assay type: in vivo
[3] = SCORED overall, sotagliflozin vs placebo
[4] = SCORED overall, sotagliflozin vs placebo, listed as sotagliflozin
[5] = reported LVH and no reported hypertension, N = 217
[6] = reported LVH and no reported hypertension, sotagliflozin vs placebo

Structure (SMILES): CCOc1ccc(Cc2cc([C@@H]3O[C@H](SC)[C@@H](O)[C@H](O)[C@H]3O)ccc2Cl)cc1 [Sotagliflozin, (2S,3R,4R,5S,6R)-2-(4-chloro-3-(4-ethoxybenzyl)phenyl)-6-(methylthio) tetrahydro-2H-pyran-3,4,5-triol]
- total hospitalizations ([1]; SCORED overall): 1923
- total patient-years spanned by hospitalizations ([1]; SCORED overall): 104 patient-years
- Deaths from any cause, event rate ([1]; SCORED overall, N = 5292): 3.5 Events/100 patient-years
- Deaths from any cause, number of events ([1]; SCORED overall, N = 5292): 246 number of events
- Deaths from cardiovascular causes, event rate ([1]; SCORED overall, N = 5292): 2.2 Events/100 patient-years
- Deaths from cardiovascular causes, number of events ([1]; SCORED overall, N = 5292): 155 number of events
- First occurrence of a sustained decrease of ≥50% in the eGFR from baseline for ≥30 days, long-term dialysis, renal transplantation, or sustained eGFR of <15 ml/min/1.73 m^2 for ≥30 days, event rate ([1]; SCORED overall, N = 5292): 0.5 Events/100 patient-years
- First occurrence of the composite renal end point (sustained ≥50% eGFR decrease, long-term dialysis, renal transplantation, or sustained eGFR <15), number of events ([1]; SCORED overall, N = 5292): 37 number of events
- Primary end point: total no. of deaths from cardiovascular causes, hospitalizations for HF, and urgent visits for HF, event rate ([1]; SCORED overall, N = 5292): 5.6 Events/100 patient-years
- Primary end point: total no. of deaths from cardiovascular causes, hospitalizations for HF, and urgent visits for HF, number of events ([1]; SCORED overall, N = 5292): 400 number of events
- Total no. of deaths from cardiovascular causes, hospitalizations for HF, nonfatal myocardial infarctions, and nonfatal strokes, event rate ([1]; SCORED overall, N = 5292): 7.6 Events/100 patient-years
- Total no. of deaths from cardiovascular causes, hospitalizations for HF, nonfatal myocardial infarctions, and nonfatal strokes, number of events ([1]; SCORED overall, N = 5292): 541 number of events
- Total no. of deaths from cardiovascular causes, hospitalizations for HF, urgent visits for HF, and events of HF during hospitalization, event rate ([1]; SCORED overall, N = 5292): 6.4 Events/100 patient-years
- Total no. of deaths from cardiovascular causes, hospitalizations for HF, urgent visits for HF, and events of HF during hospitalization, number of events ([1]; SCORED overall, N = 5292): 453 number of events
- Total no. of deaths from cardiovascular causes, nonfatal myocardial infarctions, and nonfatal strokes, event rate ([1]; SCORED overall, N = 5292): 4.8 Events/100 patient-years
- Total no. of deaths from cardiovascular causes, nonfatal myocardial infarctions, and nonfatal strokes, number of events ([1]; SCORED overall, N = 5292): 343 number of events
- Total no. of hospitalizations for HF and urgent visits for HF, event rate ([1]; SCORED overall, N = 5292): 3.5 Events/100 patient-years
- Total no. of hospitalizations for HF and urgent visits for HF, number of events ([1]; SCORED overall, N = 5292): 245 number of events
- composite renal end point, compared with placebo ([1]; SCORED overall, in words): did not differ significantly
- risk of the composite of deaths from cardiovascular causes, hospitalizations for heart failure, and urgent visits for heart failure, compared with placebo ([1]; SCORED overall, in words): lower risk
- Deaths from any cause: Hazard Ratio (95% CI) [1, 3]: 0.99 (0.83-1.18)
- Deaths from cardiovascular causes: Hazard Ratio (95% CI) [1, 3]: 0.90 (0.73-1.12)
- First occurrence of the composite renal end point: Hazard Ratio (95% CI) [1, 3]: 0.71 (0.46-1.08)
- Original coprimary end point, first occurrence of death from cardiovascular causes or hospitalization for heart failure: hazard ratio [1, 3]: 0.77
- Original coprimary end point, first occurrence of death from cardiovascular causes, nonfatal myocardial infarction, or nonfatal stroke: hazard ratio [1, 3]: 0.84
- Primary end point: Hazard Ratio (95% CI) [1, 3]: 0.74 (0.63-0.88)
- Total no. of deaths from cardiovascular causes, hospitalizations for HF, nonfatal myocardial infarctions, and nonfatal strokes: Hazard Ratio (95% CI) [1, 3]: 0.72 (0.63-0.83)
- Total no. of deaths from cardiovascular causes, hospitalizations for HF, urgent visits for HF, and events of HF during hospitalization: Hazard Ratio (95% CI) [1, 3]: 0.76 (0.64-0.89)
- Total no. of deaths from cardiovascular causes, nonfatal myocardial infarctions, and nonfatal strokes: Hazard Ratio (95% CI) [1, 3]: 0.77 (0.65-0.91)
- Total no. of hospitalizations for HF and urgent visits for HF: Hazard Ratio (95% CI) [1, 3]: 0.67 (0.55-0.82)
- Deaths from cardiovascular causes: Hazard Ratio (95% CI) [1, 4]: 0.90
- Primary end point: Hazard Ratio (95% CI) [1, 4]: 0.74
- Total no. of hospitalizations for HF and urgent visits for HF: Hazard Ratio (95% CI) [1, 4]: 0.67
- acute kidney injury, percentage of patients ([1]; human, in vivo): 2.2%
- diabetic ketoacidosis, percentage of patients ([1]; human, in vivo): 0.6%
- diarrhea, percentage of patients ([1]; human, in vivo): 8.5%
- genital mycotic infections, percentage of patients ([1]; human, in vivo): 2.4%
- percentage of patients in whom hypertension developed ([1]; human, in vivo): 2.6%
- percentage of patients in whom hypotension developed ([1]; human, in vivo): 2.6%
- percentage of patients with a serious adverse event ([1]; human, in vivo): 23.4%
- volume depletion, percentage of patients ([1]; human, in vivo): 5.3%
- Diarrhea, genital mycotic infections, volume depletion, and diabetic ketoacidosis, frequency compared with placebo ([1]; in vivo): more common
- bone fractures, urinary tract infections, severe hypoglycemia, acute kidney injury, or amputations, compared with placebo ([1]; in vivo): no significant between-group differences
- percentage of patients with adverse events that occurred or worsened during the treatment period or with events leading to withdrawal of the trial regimen, compared with placebo ([1]; in vivo): no significant differences
- effect on the SCORED study's primary endpoint in the presence or absence of reported LVH or hypertension at baseline ([2]; FIG. 1, in words): consistent
- Acute Kidney Injury, count ([2]; human, in vivo): 6
- Acute Kidney Injury, figure in brackets ([2]; human, in vivo): 2.8
- Any Malignancies of Special Interest, count ([2]; human, in vivo): 4
- Any Malignancies of Special Interest, figure in brackets ([2]; human, in vivo): 1.8
- Bone Fractures, count ([2]; human, in vivo): 7
- Bone Fractures, figure in brackets ([2]; human, in vivo): 3.2
- Diabetic Ketoacidosis, count ([2]; human, in vivo): 1
- Diabetic Ketoacidosis, figure in brackets ([2]; human, in vivo): 0.5
- Diarrhea, count ([2]; human, in vivo): 19
- Diarrhea, figure in brackets ([2]; human, in vivo): 8.8
- Genital Mycotic Infections, count ([2]; human, in vivo): 2
- Genital Mycotic Infections, figure in brackets ([2]; human, in vivo): 0.9
- Pancreatitis, count ([2]; human, in vivo): 1
- Pancreatitis, figure in brackets ([2]; human, in vivo): 0.5
- Severe Hypoglycemia, count ([2]; human, in vivo): 2
- Severe Hypoglycemia, figure in brackets ([2]; human, in vivo): 0.9
- Urinary Tract Infections, count ([2]; human, in vivo): 20
- Urinary Tract Infections, figure in brackets ([2]; human, in vivo): 9.2
- Venous Thrombotic Events, count ([2]; human, in vivo): 3
- Venous Thrombotic Events, figure in brackets ([2]; human, in vivo): 1.4
- Volume Depletion, count ([2]; human, in vivo): 10
- Volume Depletion, figure in brackets ([2]; human, in vivo): 4.6
- hazard ratio in patients with LVH without hypertension compared with the general population of patients at risk of cardiovascular events ([2]; in words): markedly lower
- risk of CV events in patients with reported LVH and no reported hypertension ([2]; in words): significantly reduced
- 3-point MACE + HHF, event rate [2, 5]: 5.5 Events per 100 patient-years
- 3-point MACE, event rate [2, 5]: 3.1 Events per 100 patient-years
- 3-point MACE + HHF: Hazard Ratio (95% CI) [2, 6]: 0.46 (0.21, 0.99)
- 3-point MACE: Hazard Ratio (95% CI) [2, 6]: 0.52 (0.21, 1.28)

Source: patent US20250114323A1, “METHODS OF REDUCING THE RISK OF CARDIOVASCULAR EVENTS IN PATIENTS WITH LEFT VENTRICULAR HYPERTROPHY” (LEXICON PHARMACEUTICALS, INC., priority 2023, published 2025)
